SMILES strings stand for the structures. Activity calls are given as the source filed them. The rule behind the calls is not given here.

These results are taken from PubChem BioAssay AID1324 (NMMLSC, 2008).

The experiment addresses glutathione S-transferase (GST-GSH binding). The experiment is described as follows: GST–glutathione interaction disruption – biochemical, multiplex beads, flow cytometry, HPSMTB buffer, profiling panel (AID 1324).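 For all read-outs here: glutathione beads loaded with GST-green fluorescent protein and no fluorescent Bim peptide.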 The following applies: multiplex bead flow cytometry, MCF; for percent span inhibition: stronger effect = higher value, concentration not given here.

For `COc1ccc2nc(C)cc(SCC(=O)N/N=C/c3ccc(O)cc3O)c2c1`, the percent span inhibition entry is “inactive”.
Turning to `O=C1c2ccccc2-c2onc3ccc(NCc4ccco4)c1c23`, the EC50 result is “inactive”.
For the molecule `COc1cc(CNc2ccc(N3CCCC3)cc2)cc(Cl)c1OC`, the percent span inhibition entry is “inactive”.
On the same count and under the same terms, the same measure for `CC1(C)SC(=S)N(NC(=O)Nc2ccccc2)C1N(O)C(=O)Nc1cccc2ccccc12` (configuration not stated): “inactive”; for `Cc1ccc(C(NC(=O)C(C)C)c2cc([N+](=O)[O-])c3cccnc3c2O)cc1` (configuration not stated): “inactive”.
Same read-out and setting: to `CCOC(=O)c1nn(-c2ccccc2)c(C#N)c1N` belongs “inactive”.
The same measure, in the same setting: to `CN(C)S(=O)(=O)N(CC(=O)Nc1ccccc1C(F)(F)F)c1ccccc1` belongs “inactive”; to `Cc1cc(NC(=O)CSc2nnc(-c3cccnc3)n2Cc2ccccc2)no1`, “inactive”.
For the molecule `COC(=O)c1c(NC(=O)COc2ncnc3ccccc23)sc(C)c1C`, the percent span inhibition entry was “inactive”.
Consider `COc1cc(/C=C2\SC(=S)NC2=O)ccc1OS(=O)(=O)c1ccccc1`, for which the percent span inhibition result was “inactive”.
For `CCc1nnc(NC(=O)CSc2nnc(COc3ccc(C)cc3)n2-c2ccccc2)s1`, the percent span inhibition result is “inactive”.
On the same count and under the same terms, the same measure for `Cc1nc(NC(=O)CC(C)C)sc1-c1csc(Nc2ccc(Cl)cc2)n1`: “inactive”.
Same read-out and setting: to `COc1ccc(CN(C)CC(=O)NC(C)c2ccccc2)c(OC)c1` (configuration not stated) belongs “inactive”; to `COc1cc2c(cc1OC)C(c1ccccc1F)OC(=O)C2` (configuration not stated), “inactive”; to `Cc1ccc(/C=C/C(=O)c2ccccc(=O)c2O)cc1C`, “inactive”.
Same read-out and setting: to `Cc1ccc(C(=O)CCC(=O)Nc2ccc(Cl)c(S(=O)(=O)Nc3cccc(Cl)c3)c2)cc1` belongs “inactive”.
In the case of `COc1cc2[nH]c(=S)nc(NCCc3ccc(S(N)(=O)=O)cc3)c2cc1OC`, the half-maximal effective concentration (EC50) was 3.63 µM.
As for `Cc1sc(NC(=O)Cn2cnnn2)nc1-c1ccc(Cl)cc1`, the percent span inhibition entry is “inactive”.
The same measure, in the same setting: the same measure for `Fc1cccc(Nc2nc(-c3ccncc3)nc3ccccc23)c1`: “inactive”; for `c1ccc(C2=Nc3cccc4cccc(c34)N2)cc1`: “inactive”; for `COc1ccc(-c2csc(NC(=O)/C(N=Nc3ccccc3)=C(\C)O)n2)cc1`: “inactive”.
The same measure, in the same setting: to `CC(C)COC(=O)/C(C#N)=C/c1cn(Cc2ccccc2)c2ccccc12` belongs “inactive”.
On the same count and under the same terms, to `O=C(O)c1ccc(NC2=C/C(=N/S(=O)(=O)c3ccccc3)c3ccccc3C2=O)cc1` belongs “inactive”; to `Cc1cc2nn(-c3cccc4ccccc34)nc2cc1N`, “inactive”; to `CCOC(=O)c1c(NC(=O)c2ccccc2N(C)S(=O)(=O)c2ccccc2)sc2c1CCCC2`, “inactive”.
With `Nc1c(C(=O)NC2CC2)sc2nc3c(c(-c4ccco4)c12)CC/C3=C/c1ccco1`, the percent span inhibition result is “inactive”.
The same measure, in the same setting: the same measure for `O=C1NC(=O)C2(Cc3c(nc4ccccn4c3=O)N3CCCCCC32)C(=O)N1Cc1ccccc1` (configuration not stated): “inactive”; for `CCOC(=O)c1ccc(NC(=O)CSCCC(=O)O)cc1`: “inactive”; for `Cc1c(NC2=C(Cl)C(=O)N(c3ccccc3)C2=O)c(=O)n(-c2ccccc2)n1C`: “inactive”.
Consider `CCOCCCn1c(N)c(C(=O)Nc2sc3c(c2C(=O)OC)CCCC3)c2nc3ccccc3nc21`, for which the percent span inhibition entry is “inactive”.
For `COCCNC(=S)Nc1cc(OC)c(OC)cc1C#N`, the percent span inhibition entry was “inactive”.
Regarding `CC(C)C(=O)NC(c1ccccc1)c1cc([N+](=O)[O-])c2cccnc2c1O` (configuration not stated), the percent span inhibition entry is “inactive”.
For `O=C(CSc1ccc2nnc(-c3ccccn3)n2n1)Nc1nccs1`, the percent span inhibition result was “inactive”.
Same read-out and setting: the same measure for `O=C(NCCc1ccccc1)c1ccc2nc(-c3ccco3)c(-c3ccco3)nc2c1`: “inactive”; for `O=C(/C=C/c1ccc(-c2ccccc2[N+](=O)[O-])o1)c1ccccc1`: “inactive”; for `O=C(Cn1c(-c2ccccc2)noc1=O)N1CCC(Cc2ccccc2)CC1`: “inactive”.
Same read-out and setting: to `CCc1ccc(NC(=O)Cc2ccc(OC)cc2)cc1` belongs “inactive”; to `Cc1ccc(SCCC(=O)Nc2ccc(Br)c(C)c2)cc1`, “inactive”.
`OCCC1CN(Cc2nc3c(s2)CCCC3)CCN1Cc1ccsc1` (configuration not stated): the percent span inhibition entry was “inactive”.
The same measure, in the same setting: to `O=C(NC1=C(Nc2ccc(Cl)cc2)C(=O)c2ccccc2C1=O)c1ccccc1` belongs “inactive”.
As to `Cc1nc2ncccn2c1-c1csc(Nc2ccc(O)cc2)n1`, the concentration for a half-maximal effect (EC50) is 0.69 µM.
On to `COc1ccc(/C=C(/C(=O)c2cccs2)N2C=CC=CC2=C(C#N)C#N)cc1`, for which the percent span inhibition result is “inactive”.
On to `O=C1c2ccccc2C(=O)N1c1cccc2cccnc12`, for which the percent span inhibition entry is “inactive”.
On the same count and under the same terms, to `OC(CNC1CCCCC1)COCCOc1ccc(Br)cc1` (configuration not stated) belongs “inactive”; to `CC1Cc2ccccc2N1C(=O)c1ccc(N2CCCC2)c([N+](=O)[O-])c1` (configuration not stated), “inactive”.
The same measure, in the same setting: the same measure for `Cc1cc2nc(/C(C#N)=C/c3ccncc3)[nH]c2cc1C`: “inactive”; for `CCn1c(C)c(/C=N/Nc2nc3ccccc3s2)c2ccccc21`: “inactive”.
Same read-out and setting: to `O=C1Nc2ccc([N+](=O)[O-])cc2OC1CCN1CCN(Cc2ccc3c(c2)OCO3)CC1` (configuration not stated) belongs “inactive”.
As to `COC(=O)c1ccc(C)c(NC(=O)CCNC(=O)c2ccc([N+](=O)[O-])cc2)c1`, the percent span inhibition entry was “inactive”.
The same measure, in the same setting: to `Cn1c(N)c(C(=O)COC(=O)c2cncc(Br)c2)c(=O)n(C)c1=O` belongs “inactive”; to `COCc1cc(CN2CCCC(CNC(=O)c3ccc(F)cc3)C2)ccc1OC` (configuration not stated), “inactive”; to `CCC(=O)OCCNc1cc(Sc2nc3ccccc3[nH]2)c2nonc2c1[N+](=O)[O-]`, “inactive”.
Still for that read-out and setting: to `O=C(COc1ccc(Br)cc1CNC1CCCCC1)NCCc1ccccc1` belongs “inactive”; to `COc1ccc(S(=O)(=O)NCCOc2cccc3cccnc23)cc1OC`, “inactive”.
Take `CCOC(=O)c1sc(NC(=O)c2ccncc2)c(C#N)c1C`: the percent span inhibition entry is “inactive”.
Same read-out and setting: to `CCC(=O)N(CC)C1=C(O)c2ccccc2C(=O)C1=O` belongs “inactive”.
Same read-out and setting: the same measure for `S=C(NCCc1ccccc1)NCCc1ccccc1`: “inactive”; for `Cc1ccc(-c2ccc(CCC(=O)O)n2NC(=O)c2cccs2)cc1`: “inactive”; for `CC(/C=C/C(=O)c1ccc(C)cc1)=C\c1ccccc1`: “inactive”.
Same read-out and setting: to `Cc1ccc(-c2nc(N3CCOCC3)s[n+]2-c2ccccc2)cc1` belongs “inactive”.
As to `O=[N+]([O-])c1ccc(-c2cn(-c3ccc(Cl)cc3)c(=S)[nH]2)cc1`, the percent span inhibition result is “inactive”.
`Cc1cc(C)nc(SCc2cc(=O)c(OC(=O)c3ccc(Cl)c([N+](=O)[O-])c3)co2)n1`: the EC50 is 6.13 µM.
`O=C(N/N=C/c1ccc(-c2ccccc2[N+](=O)[O-])o1)c1cncc(Br)c1`: the percent span inhibition entry is “inactive”.
Same read-out and setting: the same measure for `Cc1cccc(C(=O)N=c2c(C#N)cc3c(=O)n4cccc(C)c4nc3n2Cc2ccco2)c1`: “inactive”.
Consider `O=C(COC(=O)CCCN=C1NS(=O)(=O)c2ccccc21)NC(=O)NC1CCCC1`, for which the percent span inhibition result was “inactive”.
On the same count and under the same terms, to `COc1c(C)cc(Br)cc1C(=O)Nc1ccc(S(N)(=O)=O)cc1` belongs “inactive”.
On the same count and under the same terms, to `Cc1cc(-c2nn(-c3ccccc3)cc2/C=C2\SC(N)=NC2=O)ccc1OC(C)C` belongs “inactive”; to `Nc1ccc(N2CCN(CCCCN3C(=O)C4CCCN4C3=O)CC2)cc1` (configuration not stated), “inactive”; to `COc1ccccc1Cn1nnc2c(=O)[nH]c(C3CCN(C(=O)c4ccc(C)cc4)CC3)nc21`, “inactive”.
Turning to `C=CCn1c(SCC(=O)Nc2ccc3c(c2)OCO3)nnc1-c1cc(Br)ccc1O`, the percent span inhibition entry was “inactive”.
As to `COCCN=c1scc(-c2cccs2)n1/N=C/c1ccc(O)c(O)c1O`, the percent span inhibition entry was “inactive”.
The same measure, in the same setting: to `COC(=O)c1[nH]c2ccccc2c1NC(=O)c1ccccc1[N+](=O)[O-]` belongs “inactive”.
Still for that read-out and setting: to `O=C(CSc1nnc(-c2ccco2)n1Cc1ccccc1)c1ccccc1` belongs “inactive”; to `COc1ccccc1NC(=O)CSc1ncn(-c2ccccc2)n1`, “inactive”.
The same measure, in the same setting: the same measure for `CCOC(=O)C1=C(CP(=O)(c2ccccc2)c2ccccc2)NC(=O)NC1c1ccc(OC)cc1` (configuration not stated): “inactive”; for `CN1CCS/C1=C/C=C1/SC(=S)N(Cc2ccccc2)C1=O`: “inactive”; for `Cn1c(=O)c(C(=O)COC(=O)c2cc(-c3ccco3)nc3ccccc23)c(N)n(Cc2ccccc2)c1=O`: “inactive”.
On to `S=C(Nc1ccccc1)N1CCn2cccc2C1c1cccnc1` (configuration not stated), for which the percent span inhibition entry is “inactive”.
On the same count and under the same terms, the same measure for `Cc1ccc2c(c1)c(C)c(C)n2CC(O)Cn1nc(C)c(Br)c1C` (configuration not stated): “inactive”; for `O=C(c1ccccc1NS(=O)(=O)c1ccc(Br)s1)N1CCCC1`: “inactive”.
For the molecule `Cc1ccc(C)n1-c1cccc(C(=O)O)c1`, the percent span inhibition result is “inactive”.
Same read-out and setting: to `O=C(NCc1ccco1)C1CC2CCC1C2` (configuration not stated) belongs “inactive”.
`COc1ccc(C2=Nn3c(nnc3-c3ccccn3)SC2)cc1OC`: the percent span inhibition result is “inactive”.
On the same count and under the same terms, the same measure for `Cc1ccc2cc(C)c(Sc3nnnn3-c3ccccc3)nc2c1`: “inactive”; for `Fc1ccc(C2=Nc3cccc4cccc(c34)N2)cc1`: “inactive”; for `CCCCc1ccc(NC(=S)NCc2ccc(OC)cc2)cc1`: “inactive”.
On the same count and under the same terms, to `O=C(CCc1ccccc1)N1CCN(c2ccccn2)CC1` belongs “inactive”.
